These results are taken from patent US11247987B2, “Inhibiting ubiquitin specific peptidase 30” (FORMA Therapeutics, Inc., priority 2017, dated 2022).

Where only a bound is given, the exact number is not on record here.

The target in the test is T1, human recombinant USP30 (Homo sapiens, UniProt Q70CQ3).
T1 construct: purchased Boston Biochem E-582
T1 sequence (Q70CQ3 1-517): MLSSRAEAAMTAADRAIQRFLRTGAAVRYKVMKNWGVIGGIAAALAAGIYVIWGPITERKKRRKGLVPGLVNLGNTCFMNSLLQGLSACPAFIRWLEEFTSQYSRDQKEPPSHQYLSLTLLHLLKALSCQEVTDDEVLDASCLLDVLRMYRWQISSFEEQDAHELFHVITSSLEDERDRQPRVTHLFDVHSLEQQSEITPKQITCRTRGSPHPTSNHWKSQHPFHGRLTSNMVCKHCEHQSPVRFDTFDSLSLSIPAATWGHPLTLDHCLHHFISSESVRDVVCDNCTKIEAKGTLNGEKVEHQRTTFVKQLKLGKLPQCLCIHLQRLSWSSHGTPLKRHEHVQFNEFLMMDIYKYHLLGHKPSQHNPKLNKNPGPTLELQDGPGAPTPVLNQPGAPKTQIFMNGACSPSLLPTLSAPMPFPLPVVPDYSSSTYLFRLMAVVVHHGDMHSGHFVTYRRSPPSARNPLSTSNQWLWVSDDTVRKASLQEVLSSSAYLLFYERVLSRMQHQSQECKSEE
Description: Ubiquitin-Rhodamine 110 Assay for USP30 Activity (USP30 Inhibitor Biochemical Assay). The settings on record: 0.2 nM USP30, 25 nM Ub-Rh110, 30 min preincubation, 30 min at room temperature; read-out: USP30 potency range (USP30 biochemical IC50 assay, IC50 ranges). The procedure: Example A: Biochemical Assay: Ubiquitin-Rhodamine 110 Assay for USP30 Activity (USP30 Inhibitor Biochemical Assay)
The assay was performed in a final volume of 9 μL in assay buffer containing 20 mM Tris-HCl (pH 8.0, (1M Tris-HCl, pH 8.0 solution; Corning 46-031-CM)), 1 mM GSH (L-glutathione reduced, Sigma-Aldrich, G4251-100G), 0.03% BGG (0.22 μM filtered, Sigma, G7516-25G), and 0.01% Triton X-100 (Sigma, T9284-10L). Nanoliter quantities of 10-point, 3-fold serial dilution in DMSO were pre-dispensed into 1536 assay plates (Corning, #3724BC) for a final test concentration of 25 μM to 1.3 nM, top to lowest dose, respectively. Concentration and incubation times were optimized for the maximal signal-to-background while maintaining initial velocity conditions at a fixed substrate concentration. The final concentration of USP30 (human recombinant USP30, Boston Biochem, cat. # E-582) in the assay was 0.2 nM. […] 3 μL of 2×USP30 was added to assay plates (pre-stamped with compound), preincubated for 30 minutes and then treated with 3 μL of 2×Ub-Rh110. Plates were incubated for 30 minutes at room temperature before addition of 3 μL of stop solution (final concentration of 10 mM citric acid (Sigma, 251275-500G)). Fluorescence was read on the Envision (excitation at 485 nm and emission at 535 nm; Perkin Elmer) or on the PheraSTAR (excitation at 485 nm and emission at 535 nm; BMG Labtech).
For all assay formats data were reported as percent inhibition compared with control wells based on the following equation: % inh=1−((FLU−AveLow)/(AveHigh−AveLow)) where FLU=measured Fluorescence, AveLow=average Fluorescence of no enzyme control (n=16), and AveHigh=average Fluorescence of DMSO control (n=16). IC50 values were determined by curve fitting of the standard 4 parameter logistic fitting algorithm included in the Activity Base software package: IDBS XE Designer Model205. Data is fitted using the Levenburg Marquardt algorithm.
Turning to `CN(c1cc(-c2cccc(Cl)c2)on1)C(=O)[C@H]1C[C@H](NC#N)C1` [Compound 1-52, (1r,3r)-N-[5-(3-chlorophenyl)-1,2-oxazol-3-yl]-3-(cyanoamino)-N-methylcyclobutane-1-carboxamide], the IC50 lay within 0.1 to 1 µM. Consider `N#CN[C@H]1C[C@H](C(=O)Nc2ncc(C3CCCCC3)o2)C1` [Compound 1-53, (1r,3r)-3-(cyanoamino)-N-(5-cyclohexyl-1,3-oxazol-2-yl)cyclobutane-1-carboxamide], for which the IC50 lay within 0.1 to 1 µM. The value for `CN(c1nc(Cl)c(C(C)(C)C)s1)C(=O)[C@]1(F)C[C@H](NC#N)C1` [Compound 1-54, (1r,3r)-N-(5-tert-butyl-4-chloro-1,3-thiazol-2-yl)-3-(cyanoamino)-1-fluoro-N-methylcyclobutane-1-carboxamide] was less than 0.1 µM; that for `CN(c1nc(Cl)c(C2CCCCC2)s1)C(=O)[C@]1(F)C[C@H](NC#N)C1` [Compound 1-55, (1r,3r)-N-(4-chloro-5-cyclohexyl-1,3-thiazol-2-yl)-3-(cyanoamino)-1-fluoro-N-methylcyclobutane-1-carboxamide] was less than 0.1 µM. In the case of `N#CN[C@H]1C[C@](F)(C(=O)Nc2cc(-c3ccc(C(F)(F)F)cc3)n[nH]2)C1` [Compound 1-56, (1s,3s)-3-(cyanoamino)-1-fluoro-N-{3-[4-(trifluoro-methyl)phenyl]-1H-pyrazol-5-yl}cyclobutane-1-carboxamide] it was 0.1 to 1 µM; in that of `N#CN[C@H]1C[C@@](F)(C(=O)Nc2cc(-c3ccc(C(F)(F)F)cc3)n[nH]2)C1` [Compound 1-57, (1r,3r)-3-(cyanoamino)-1-fluoro-N-{3-[4-(trifluoro-methyl)phenyl]-1H-pyrazol-5-yl}cyclobutane-1-carboxamide], 0.1 to 1 µM. With `CN(c1nc(Cl)c(C2CCCCC2)s1)C(=O)[C@]1(F)C[C@@H](NC#N)C1` [Compound 1-58, (1s,3s)-N-(4-chloro-5-cyclohexyl-1,3-thiazol-2-yl)-3-(cyanoamino)-1-fluoro-N-methylcyclobutane-1-carboxamide], the IC50 was 0.1 to 1 µM. The value for `CC(C)(C)c1sc(NC(=O)[C@]2(F)C[C@@H](NC#N)C2)nc1Cl` [Compound 1-59, (1s,3s)-N-(5-tert-butyl-4-chloro-1,3-thiazol-2-yl)-3-(cyanoamino)-1-fluorocyclobutane-1-carboxamide] was 0.1 to 1 µM; that for `CC(C)(C)c1sc(NC(=O)[C@]2(F)C[C@H](NC#N)C2)nc1Cl` [Compound 1-60, (1r,3r)-N-(5-tert-butyl-4-chloro-1,3-thiazol-2-yl)-3-(cyanoamino)-1-fluorocyclobutane-1-carboxamide] was less than 0.1 µM; that for `Cc1cc(NC(=O)[C@H]2C[C@H](NC#N)C2)cc(-c2ccccc2F)c1` [Compound 1-61, (1r,3r)-3-(cyanoamino)-N-[3-(2-fluorophenyl)-5-methylphenyl]cyclo-butane-1-carboxamide] was 0.1 to 1 µM. The value for `N#CN[C@H]1C[C@H](C(=O)Nc2cc(Cl)cc(C3CCCCC3)c2)C1` [Compound 1-62, (1r,3r)-N-(3-chloro-5-cyclohexylphenyl)-3-(cyanoamino)cyclo-butane-1-carboxamide] was less than 0.1 µM; that for `N#CN[C@H]1C[C@H](C(=O)Nc2ccc(F)c(N3CCCCC3)c2)C1` [Compound 1-63, (1r,3r)-3-(cyanoamino)-N-[4-fluoro-3-(piperidin-1-yl)phenyl]cyclobutane-1-carboxamide] was 0.1 to 1 µM. Regarding `N#CN[C@H]1C[C@H](C(=O)Nc2nc3cccc(OC4CCC4)c3s2)C1` [Compound 1-64, (1r,3r)-3-(cyanoamino)-N-(7-cyclobutoxy-1,3-benzothiazol-2-yl)cyclobutane-1-carboxamide], the IC50 is 0.1 to 1 µM. In the case of `N#CN[C@H]1C[C@@](F)(C(=O)Nc2nc3cccc(OC4CCC4)c3s2)C1` [Compound 1-65, (1r,3r)-3-(cyanoamino)-N-(7-cyclobutoxy-1,3-benzothiazol-2-yl)-1-fluorocyclobutane-1-carboxamide] it was less than 0.1 µM; in that of `N#CN[C@H]1C[C@](F)(C(=O)Nc2nc3cccc(OC4CCC4)c3s2)C1` [Compound 1-66, (1s,3s)-3-(cyanoamino)-N-(7-cyclobutoxy-1,3-benzothiazol-2-yl)-1-fluorocyclobutane-1-carboxamide], 0.1 to 1 µM; in that of `CC1(C)[C@@H]2CC[C@@H](CNC(=O)[C@H]3C[C@H](NC#N)C3)[C@H]1C2` [Compound 1-67, (1r,3r)-3-(cyanoamino)-N-{[(1R,2R,5R)-6,6-dimethylbicyclo[3.1.1]heptan-2-yl]methyl}cyclo-butane-1-carboxamide], 0.1 to 1 µM.

For `N#CN[C@H]1C[C@H](C(=O)Nc2nc(-c3ccc(Cl)cc3)cs2)C1` [Compound 1-68, (1r,3r)-N-[4-(4-chlorophenyl)-1,3-thiazol-2-yl]-3-(cyanoamino)cyclo-butane-1-carboxamide], the IC50 lay in the range of 0.1 to 1 µM.

Turning to `N#CN[C@H]1C[C@H](C(=O)Nc2cccc(-c3ccccc3)c2)C1` [Compound 1-69, (1r,3r)-3-(cyanoamino)-N-(3-phenylphenyl)cyclo-butane-1-carboxamide], the IC50 fell in the range of 0.1 to 1 µM. `CC(C)c1ccc(CNC(=O)[C@H]2C[C@H](NC#N)C2)cc1` [Compound 1-70, (1r,3r)-3-(cyanoamino)-N-{[4-(propan-2-yl)phenyl]methyl} cyclobutane-1-carboxamide]: the IC50 is less than 0.1 µM.

Turning to `CC(C)(C)[C@H]1CC[C@@H](NC(=O)[C@H]2C[C@H](NC#N)C2)CC1` [Compound 1-71, (1r,3r)-3-(cyanoamino)-N-[(1s,4s)-4-tert-butylcyclohexyl]cyclo-butane-1-carboxamide], the IC50 was 0.1 to 1 µM.

For the molecule `N#CN[C@H]1C[C@H](C(=O)Nc2cccc(C(F)(F)F)c2)C1` [Compound 1-73, (1r,3r)-3-(cyanoamino)-N-[3-(trifluoro-methyl)phenyl] cyclobutane-1-carboxamide], the IC50 is 0.1 to 1 µM. The value for `N#CNC1CN(C(=O)Nc2ncc(C3CCCCC3)s2)C1` [Compound 2-1, 3-(cyanoamino)-N-(5-cyclohexyl-1,3-thiazol-2-yl)azetidine-1-carboxamide] was 1 to 10 µM; that for `N#CN[C@H]1CCN(C(=O)Nc2ncc(C3CCCCC3)s2)C1` [Compound 2-2, (3S)-3-(cyanoamino)-N-(5-cyclohexyl-1,3-thiazol-2-yl)pyrrolidine-1-carboxamide] was 1 to 10 µM.

Regarding `N#CN[C@H]1C[C@H](NC(=O)c2ncc(-c3ccccc3)s2)C1` [Compound 3-1, 5-phenyl-N-[(trans)-3-(cyanoamino)cyclobutyl]-1,3-thiazole-2-carboxamide], the IC50 is 1 to 10 µM. The value for `N#CNC1CC2(CCN2C(=O)c2cnc(-c3ccccc3)s2)C1` (stereo not drawn) [Compound 3-2, {[1-(2-phenyl-1,3-thiazole-5-carbonyl)-l-azaspiro[3.3]heptan-6-yl]amino} carbonitrile] was 0.1 to 1 µM. In the case of `Cn1cc(-c2ccc(-c3cc(C(=O)N[C@H]4C[C@@H](NC#N)C4)on3)cc2)cn1` [Compound 3-3, 3-[4-(1-methyl-1H-pyrazol-4-yl)phenyl]-N-[(1s,3s)-3-(cyanoamino)cyclobutyl]-1,2-oxazole-5-carboxamide] it was 0.1 to 1 µM; in that of `Cn1cc(-c2ccc(-c3cc(C(=O)N4CCC[C@]45C[C@H](NC#N)C5)on3)cc2)cn1` [Compound 3-4, {[(2r,4s)-5-{3-[4-(1-methyl-1H-pyrazol-4-yl)phenyl]-1,2-oxazole-5-carbonyl}-5-azaspiro[3.4]octan-2-yl]amino} carbonitrile], 0.1 to 1 µM; in that of `Cn1cc(-c2ccc(-c3cc(C(=O)N4CC[C@]45C[C@@H](NC#N)C5)on3)cc2)cn1` [Compound 3-5, {[(4r,6s)-1-{3-[4-(1-methyl-1H-pyrazol-4-yl)phenyl]-1,2-oxazole-5-carbonyl}-1-azaspiro[3.3]heptan-6-yl]amino} carbonitrile], 0.1 to 1 µM.

As a reminder, the IC50 is the point on the concentration scale where inhibition reaches its midpoint.
